Values quoted from earlier work as cited in patent publication US11872314B2, “Pharmaceutical compositions” (Shin Nippon Biomedical Laboratories, Ltd., priority 2016, dated 2024).

Conditions: at 25° C.

Water solbility: 0.937 µg/mL
Structure (SMILES): COc1ccc2c(c1)c(CC(=O)O)c(C)n2C(=O)c1ccc(Cl)cc1 [Indomethacin, indomethacin]
